Consider three compounds from PubChem BioAssay AID1745844 (Carcinogenic Potency Database (CPDB), 2022).

Calls of active or inactive are those of the source. How the calls were made is not given here.

The data set relates to rodent lifetime carcinogenesis bioassay, tumor incidence TD50. Description: carcinogenic potency in animals, long-term in vivo studies, CPDB compilation (AID 1745844).
Setting [1] is: mouse, strain B6AKF1, females, oral dosing, site: lung, lesion: adenoma, dosed 76 weeks, study length 76 weeks.

As to `CC(=O)OC1CC(C)OC(C)O1` (stereo not drawn), the TD50 (usually the 50% point of the dose-response relation for the toxic effect studied) runs as follows: (mouse, strain B6C3F1, females, by gavage, site: any site (literature study), lesion: several types, types named in the paper, dosed 103 weeks, study length 104 weeks) 3380 mg/kg/day (inactive); (mouse, strain B6C3F1, females, by gavage, site: lung, lesion: alveolar/bronchiolar adenoma + alveolar/bronchiolar carcinoma, dosed 103 weeks, study length 104 weeks) 10400 mg/kg/day; (mouse, strain B6C3F1, males, by gavage, site: any site (literature study), lesion: several types, types named in the paper, dosed 103 weeks, study length 104 weeks) 1820 mg/kg/day; (mouse, strain B6C3F1, males, by gavage, site: forestomach, lesion: squamous-cell carcinoma + squamous-cell papilloma, dosed 103 weeks, study length 104 weeks) 1440 mg/kg/day; (mouse, strain B6C3F1, males, by gavage, site: liver, lesion: hepatocellular adenoma + hepatocellular carcinoma + neoplastic nodule, dosed 103 weeks, study length 104 weeks) 1180 mg/kg/day; (mouse, strain B6C3F1, males, by gavage, site: lung, lesion: alveolar/bronchiolar adenoma + alveolar/bronchiolar carcinoma, dosed 103 weeks, study length 104 weeks) 1450 mg/kg/day. Further, the TD50 reads like this: (rat, strain Fischer 344, females, by gavage, site: liver, lesion: hepatocellular adenoma + hepatocellular carcinoma + neoplastic nodule, dosed 103 weeks, study length 104 weeks) 2430 mg/kg/day; (rat, strain Wistar, males, in drinking water, site: all sites, lesion: lymphosarcoma, dosed 87 weeks, study length 100 weeks) 29800 mg/kg/day; (rat, strain Wistar, males, in drinking water, site: all sites, lesion: myelogenous leukemia, dosed 87 weeks, study length 100 weeks) 6770 mg/kg/day; (rat, strain Wistar, males, in drinking water, site: any site (literature study), lesion: several types, types named in the paper, dosed 87 weeks, study length 100 weeks) 419 mg/kg/day; (rat, strain Wistar, males, in drinking water, site: kidney, lesion: papillary transitional-cell carcinoma, dosed 87 weeks, study length 100 weeks) 6770 mg/kg/day; (rat, strain Wistar, males, in drinking water, site: liver, lesion: hepatoma, dosed 87 weeks, study length 100 weeks) 716 mg/kg/day. Besides, the TD50 (rat, strain Wistar, males, in drinking water, site: skin, lesion: epidermoid carcinoma, dosed 87 weeks, study length 100 weeks) was 6770 mg/kg/day and the TD50 (rat, strain Wistar, males, in drinking water, site: subcutaneous tissue, lesion: fibrosarcoma, dosed 87 weeks, study length 100 weeks) was 6770 mg/kg/day. Also, the carcinogen call (rat, strain Fischer 344, females, by gavage, site: any site (literature study), lesion: several types, types named in the paper, dosed 103 weeks, study length 104 weeks) was “negative (inactive)” and the carcinogen call (rat, strain Fischer 344, males, by gavage, site: any site (literature study), lesion: several types, types named in the paper, dosed 103 weeks, study length 104 weeks) is “negative (inactive)”.
In the case of `Oc1c(Cl)cc(Cl)cc1Sc1cc(Cl)cc(Cl)c1O`, the carcinogen call by setting is: (mouse, strain B6AKF1, females, oral dosing, site: liver, lesion: hepatoma, dosed 76 weeks, study length 76 weeks) “negative (inactive)”; under setting [1], “negative (inactive)”; (mouse, strain B6AKF1, males, oral dosing, site: any site (literature study), lesion: several types, types named in the paper, dosed 76 weeks, study length 76 weeks) “negative (inactive)”; (mouse, strain B6AKF1, males, oral dosing, site: liver, lesion: hepatoma, dosed 76 weeks, study length 76 weeks) “negative (inactive)”; (mouse, strain B6AKF1, males, oral dosing, site: lung, lesion: adenoma, dosed 76 weeks, study length 76 weeks) “negative (inactive)”; (mouse, strain B6C3F1, females, oral dosing, site: any site (literature study), lesion: one or several types, types not named, dosed 76 weeks, study length 76 weeks) “negative (inactive)”. For the same compound, the carcinogen call by setting is: (mouse, strain B6C3F1, females, oral dosing, site: liver, lesion: hepatoma, dosed 76 weeks, study length 76 weeks) “negative (inactive)”; (mouse, strain B6C3F1, females, oral dosing, site: lung, lesion: several types, types named in the paper, dosed 76 weeks, study length 76 weeks) “negative (inactive)”; (mouse, strain B6C3F1, males, oral dosing, site: lung, lesion: several types, types named in the paper, dosed 76 weeks, study length 76 weeks) “negative (inactive)”. Further, the TD50 runs as follows: under setting [1], 100 mg/kg/day; (mouse, strain B6C3F1, females, oral dosing, site: any site (literature study), lesion: several types, types named in the paper, dosed 76 weeks, study length 76 weeks) 43 mg/kg/day; (mouse, strain B6C3F1, males, oral dosing, site: liver, lesion: angioma, dosed 76 weeks, study length 76 weeks) 88.2 mg/kg/day; (mouse, strain B6C3F1, males, oral dosing, site: liver, lesion: several types, types named in the paper, dosed 76 weeks, study length 76 weeks) 2.28 mg/kg/day (inactive); (mouse, strain B6C3F1, males, oral dosing, site: lung, lesion: adenoma, dosed 76 weeks, study length 76 weeks) 88.2 mg/kg/day.
`COc1ccc(N)cc1N`: the TD50 by setting is: (mouse, strain B6C3F1, females, in feed, site: all sites, lesion: lymphoma, dosed 78 weeks, study length 96 weeks) 262 mg/kg/day; (mouse, strain B6C3F1, females, in feed, site: any site (literature study), lesion: several types, types named in the paper, dosed 78 weeks, study length 96 weeks) 311 mg/kg/day; (mouse, strain B6C3F1, females, in feed, site: liver, lesion: hepatocellular adenoma + hepatocellular carcinoma + neoplastic nodule, dosed 78 weeks, study length 96 weeks) 7350 mg/kg/day; (mouse, strain B6C3F1, females, in feed, site: lung, lesion: alveolar/bronchiolar adenoma + alveolar/bronchiolar carcinoma, dosed 78 weeks, study length 96 weeks) 10900 mg/kg/day; (mouse, strain B6C3F1, females, in feed, site: thyroid gland, lesion: follicular-cell adenoma + follicular-cell carcinoma, dosed 78 weeks, study length 96 weeks) 1060 mg/kg/day; (mouse, strain B6C3F1, females, in feed, site: thyroid gland, lesion: follicular-cell adenoma, dosed 78 weeks, study length 96 weeks) 1450 mg/kg/day. The TD50 reads like this: (mouse, strain B6C3F1, males, in feed, site: any site (literature study), lesion: several types, types named in the paper, dosed 78 weeks, study length 96 weeks) 354 mg/kg/day; (mouse, strain B6C3F1, males, in feed, site: liver, lesion: hepatocellular adenoma + hepatocellular carcinoma + neoplastic nodule, dosed 78 weeks, study length 96 weeks) 926 mg/kg/day; (mouse, strain B6C3F1, males, in feed, site: lung, lesion: alveolar/bronchiolar adenoma + alveolar/bronchiolar carcinoma, dosed 78 weeks, study length 96 weeks) 2560 mg/kg/day; (mouse, strain B6C3F1, males, in feed, site: thyroid gland, lesion: follicular-cell adenoma, dosed 78 weeks, study length 96 weeks) 791 mg/kg/day; (rat, strain Fischer 344, females, in feed, site: Zymbal's gland, lesion: sebaceous adenocarcinoma, dosed 78 weeks, study length 107 weeks) 665 mg/kg/day; (rat, strain Fischer 344, females, in feed, site: any site (literature study), lesion: several types, types named in the paper, dosed 78 weeks, study length 107 weeks) 181 mg/kg/day. The TD50 was 67.3 mg/kg/day (rat, strain Fischer 344, females, in feed, site: any site (literature study), lesion: several types, types named in the paper, dosed 83 weeks, study length 86 weeks); 408 mg/kg/day (rat, strain Fischer 344, females, in feed, site: clitoral gland + uterus, endometrium, lesion: carcinoma, NOS + adenocarcinoma, NOS + papillary carcinoma, dosed 78 weeks, study length 107 weeks); 416 mg/kg/day (rat, strain Fischer 344, females, in feed, site: clitoral gland, lesion: adenoma, NOS + carcinoma, NOS + cystadenoma, NOS + squamous-cell carcinoma + squamous-cell papilloma, dosed 78 weeks, study length 107 weeks); 113 mg/kg/day (rat, strain Fischer 344, females, in feed, site: clitoral gland, lesion: several types, types named in the paper, dosed 83 weeks, study length 86 weeks); 162 mg/kg/day (rat, strain Fischer 344, females, in feed, site: clitoral gland, lesion: squamous-cell carcinoma, sebaceous, dosed 83 weeks, study length 86 weeks); 14500 mg/kg/day (rat, strain Fischer 344, females, in feed, site: liver, lesion: hepatocellular adenoma + hepatocellular carcinoma + neoplastic nodule, dosed 78 weeks, study length 107 weeks). The TD50 runs as follows: (rat, strain Fischer 344, females, in feed, site: mammary gland, lesion: several types, types named in the paper, dosed 83 weeks, study length 86 weeks) 1290 mg/kg/day; (rat, strain Fischer 344, females, in feed, site: thyroid gland + Zymbal's gland, lesion: adenocarcinoma, NOS + follicular-cell carcinoma + papillary cystadenocarcinoma, NOS + sebaceous adenocarcinoma, dosed 78 weeks, study length 107 weeks) 301 mg/kg/day; (rat, strain Fischer 344, females, in feed, site: thyroid gland, lesion: adenocarcinoma, NOS + follicular-cell carcinoma + papillary cystadenocarcinoma, NOS, dosed 78 weeks, study length 107 weeks) 425 mg/kg/day; (rat, strain Fischer 344, females, in feed, site: thyroid gland, lesion: follicular-cell adenoma, dosed 83 weeks, study length 86 weeks) 296 mg/kg/day; (rat, strain Fischer 344, females, in feed, site: thyroid gland, lesion: several types, types named in the paper, dosed 83 weeks, study length 86 weeks) 162 mg/kg/day; (rat, strain Fischer 344, males, in feed, site: any site (literature study), lesion: several types, types named in the paper, dosed 78 weeks, study length 107 weeks) 135 mg/kg/day. Besides, the TD50 by setting is: (rat, strain Fischer 344, males, in feed, site: ear canal + ear + Zymbal's gland, lesion: sebaceous adenocarcinoma + squamous-cell carcinoma, dosed 78 weeks, study length 107 weeks) 709 mg/kg/day; (rat, strain Fischer 344, males, in feed, site: ear canal + ear + preputial gland + skin + thyroid gland + Zymbal's gland, lesion: sebaceous adenocarcinoma + squamous-cell carcinoma + adenoma, NOS + carcinoma, NOS + cystadenoma, NOS + papillary adenoma + basal-ce, dosed 78 weeks, study length 107 weeks) 72.6 mg/kg/day; (rat, strain Fischer 344, males, in feed, site: liver, lesion: hepatocellular adenoma + hepatocellular carcinoma + neoplastic nodule, dosed 78 weeks, study length 107 weeks) 1610 mg/kg/day; (rat, strain Fischer 344, males, in feed, site: preputial gland, lesion: adenoma, NOS + carcinoma, NOS + cystadenoma, NOS + papillary adenoma, dosed 78 weeks, study length 107 weeks) 351 mg/kg/day; (rat, strain Fischer 344, males, in feed, site: preputial gland, lesion: adenoma, NOS + cystadenoma, NOS + papillary adenoma, dosed 78 weeks, study length 107 weeks) 530 mg/kg/day; (rat, strain Fischer 344, males, in feed, site: skin, lesion: basal-cell carcinoma + sebaceous adenocarcinoma + squamous-cell carcinoma, dosed 78 weeks, study length 107 weeks) 358 mg/kg/day. Also, the TD50 runs as follows: (rat, strain Fischer 344, males, in feed, site: thyroid gland, lesion: adenocarcinoma, NOS + follicular-cell carcinoma + papillary adenocarcinoma + papillary cystadenocarcinoma, NOS, dosed 78 weeks, study length 107 weeks) 192 mg/kg/day; (rat, strain Fischer 344, males, in feed, site: thyroid gland, lesion: adenocarcinoma, NOS, dosed 78 weeks, study length 107 weeks) 252 mg/kg/day; (rat, strain Fischer 344, males, in feed, site: thyroid gland, lesion: c-cell adenoma + c-cell carcinoma, dosed 78 weeks, study length 107 weeks) 319 mg/kg/day.
